The text below walks through data of ChEMBL document CHEMBL3785027 (Eur J Med Chem, 2016).

SMILES strings stand for the structures. Where only a bound is given, the exact number is not on record here.

What all share (format): functional, cell-based
A short description of test [1]: Cytotoxicity against human KBVIN cells after 72 hrs by sulforhodamine B colorimetric assay.
In another test the test system is A549. Briefly: Cytotoxicity against human A549 cells after 72 hrs by sulforhodamine B colorimetric assay. The conditions noted are these: A549, 72 h.
The subject of the next test is KB. Briefly: Cytotoxicity against human KB cells after 72 hrs by sulforhodamine B colorimetric assay. (In general: The SRB assay estimates cell density from bound dye.)

In general, IC50 refers to the midpoint of a concentration-inhibition curve. Higher therefore signals weaker potency. In test [1], `CC[C@@]1(OC(=O)CN/C(Cc2ccc(OC)cc2)=N/S(=O)(=O)c2ccc(C)cc2)C(=O)OCc2c1cc1n(c2=O)Cc2cc3ccccc3nc2-1` gave an IC50 of 26.3 nM.

Consider `CCc1c2c(nc3ccc(O)cc13)-c1cc3c(c(=O)n1C2)COC(=O)[C@@]3(CC)OC(=O)CN/C(Cc1ccc(OC)cc1)=N/S(=O)(=O)c1ccc(C)cc1`, for which the results for the IC50 (in test [1]; with A549; with KB) were 28.2 nM, 21.8 nM and 4.5 nM, respectively.

For `CC[C@@]1(OC(=O)CN/C(Cc2ccc(OC)cc2)=N/S(=O)(=O)c2ccc(Cl)cc2)C(=O)OCc2c1cc1n(c2=O)Cc2cc3ccccc3nc2-1`, the values for the IC50 (in test [1]; with A549; in the test with KB) were 24.8 nM, 16.5 nM and 73 nM, respectively.

In the case of `CC[C@@]1(OC(=O)CCN/C(Cc2ccc(OC)cc2)=N\S(=O)(=O)c2ccc(C)cc2)C(=O)OCc2c1cc1n(c2=O)Cc2cc3ccccc3nc2-1`, the results for the IC50 (in test [1]; in the test with A549; in the test on KB) were 527 nM, 88.9 nM and 622 nM, respectively.

`CC[C@@]1(OC(=O)CN/C(Cc2ccc(OC)cc2)=N/S(=O)(=O)c2ccc(C)cc2)C(=O)OCc2c1cc1n(c2=O)Cc2cc3c([N+](=O)[O-])cccc3nc2-1`: the IC50 in test [1] turned out to be 4580 nM; in the test with A549, 6270 nM; with KB, 7040 nM.

For the compound `CC[C@@]1(OC(=O)CN/C(Cc2ccc(OC)cc2)=N/S(=O)(=O)c2ccc(C)cc2)C(=O)OCc2c1cc1n(c2=S)Cc2cc3ccccc3nc2-1`, the IC50 in test [1] stood at 159 nM; with A549, 140 nM; in the test with KB, 233 nM.

In the case of `CC[C@@]1(OC(=O)CN/C(Cc2ccc(OC)cc2)=N/S(=O)(=O)CC)C(=O)OCc2c1cc1n(c2=O)Cc2cc3ccccc3nc2-1`, the half-inhibitory concentration (IC50) is 78.6 nM in test [1], 48.1 nM in the test with A549 and 64.2 nM with KB.

`CC[C@@]1(OC(=O)CN/C(Cc2ccc(C)cc2)=N/S(=O)(=O)c2ccc(C)cc2)C(=O)OCc2c1cc1n(c2=O)Cc2cc3ccccc3nc2-1`: the IC50 in test [1] stood at 27.5 nM; in the test on A549, 17.4 nM; in the test on KB it was 73.9 nM.

`CC[C@@]1(OC(=O)CN/C(Cc2ccc(OC)cc2)=N/S(=O)(=O)c2cccnc2)C(=O)OCc2c1cc1n(c2=O)Cc2cc3ccccc3nc2-1`: the half-inhibitory concentration (IC50) in test [1] came to 123 nM; in the test on A549, 76.5 nM; with KB it was 93.8 nM.

Turning to `CC[C@@](O)(C(=O)NCCN/C(Cc1ccc(OC)cc1)=N/S(=O)(=O)c1ccc(C)cc1)c1cc2n(c(=O)c1COC(C)=O)Cc1cc3ccccc3nc1-2`, the IC50 in test [1] came to 947 nM; in the test with A549, 688 nM; in the test on KB, 937 nM.

With `CCc1c2c(nc3ccccc13)-c1cc3c(c(=O)n1C2)COC(=O)[C@@]3(CC)OC(=O)C(C)N/C(Cc1ccc(Cl)cc1)=N/S(=O)(=O)c1ccc(C)cc1` (stereo partly specified), the IC50 in test [1] was 16 nM; in the test with A549, 12.9 nM; in the test with KB, 13.3 nM.

For the compound `CC[C@@]1(OC(=O)CN/C(Cc2ccc(Cl)cc2)=N/S(=O)(=O)c2ccc(C)cc2)C(=O)OCc2c1cc1n(c2=O)Cc2cc3ccccc3nc2-1`, the values for the half-inhibitory concentration (IC50) (in test [1]; with A549; with KB) were 64.8 nM, 54.9 nM and 100 nM, respectively.

With `CCc1c2c(nc3ccccc13)-c1cc3c(c(=O)n1C2)COC(=O)[C@@]3(CC)OC(=O)CN/C(Cc1ccc(OC)cc1)=N/S(=O)(=O)c1ccc(C)cc1`, the IC50 is 10.1 nM in test [1], 6.8 nM with A549 and 9.4 nM with KB.

On to `CC[C@@]1(OC(=O)CN/C(Cc2ccc(OC)cc2)=N/S(=O)(=O)c2ccc(C)cc2)C(=O)OCc2c1cc1n(c2=O)Cc2cc3cc(O)ccc3nc2-1`, for which the concentration for half-maximal inhibition (IC50) in test [1] came out at 101 nM; in the test with A549 it was 64 nM; in the test on KB, 63.1 nM.

As for `CC[C@@]1(OC(=O)CN/C(Cc2ccc(OC)cc2)=N/S(=O)(=O)c2ccc3ccccc3c2)C(=O)OCc2c1cc1n(c2=O)Cc2cc3ccccc3nc2-1`, the half-maximal inhibitory concentration (IC50) in test [1] is 25.6 nM; in the test on A549, 16.2 nM; with KB, 68.7 nM.

For the compound `CCc1c2c(nc3ccccc13)-c1cc3c(c(=O)n1C2)COC(=O)[C@@]3(CC)OC(=O)CN/C(Cc1ccc(OC)cc1)=N/S(C)(=O)=O`, the results for the half-maximal inhibitory concentration (IC50) (in test [1]; in the test on A549; with KB) were 25.8 nM, 19.8 nM and 16.7 nM, respectively.

Take `CCc1c(OP(=O)(O)OC)ccc2nc3c(cc12)Cn1c-3cc2c(c1=O)COC(=O)[C@@]2(CC)OC(=O)CN/C(Cc1ccc(OC)cc1)=N/S(=O)(=O)c1ccc(C)cc1`: the half-maximal inhibitory concentration (IC50) in test [1] was 305 nM; with A549, 344 nM; in the test with KB, 141 nM.

On to `CC[C@@]1(OC(=O)CN/C(Cc2ccc(OC)cc2)=N/S(=O)(=O)N(C)C)C(=O)OCc2c1cc1n(c2=O)Cc2cc3ccccc3nc2-1`, for which the figures for the concentration for half-maximal inhibition (IC50) (in test [1]; with A549; with KB) were 45.3 nM, 40.8 nM and 66.5 nM, respectively.

Take `CCCCS(=O)(=O)/N=C(\Cc1ccc(OC)cc1)NCC(=O)O[C@]1(CC)C(=O)OCc2c1cc1n(c2=O)Cc2cc3ccccc3nc2-1`: the half-inhibitory concentration (IC50) came to 43.5 nM in test [1], 34.9 nM with A549 and 54.2 nM with KB.

With `CC[C@@]1(OC(=O)CN/C(C[Si](C)(C)C)=N/S(=O)(=O)c2ccc(C)cc2)C(=O)OCc2c1cc1n(c2=O)Cc2cc3ccccc3nc2-1`, the values for the half-maximal inhibitory concentration (IC50) (in test [1]; with A549; in the test with KB) were 39.9 nM, 30.2 nM and 57.8 nM, respectively.

As to `CC[C@@]1(OC(=O)CN/C(Cc2ccccc2)=N/S(=O)(=O)c2ccc(C)cc2)C(=O)OCc2c1cc1n(c2=O)Cc2cc3c([N+](=O)[O-])cccc3nc2-1`, the IC50 worked out at 9130 nM in test [1], 8270 nM with A549 and 9050 nM in the test on KB.

Take `CC[C@@]1(OC(=O)CN/C(Cc2ccc(OC)cc2)=N/S(=O)(=O)c2ccc(C)cc2)C(=O)OCc2c1cc1n(c2=O)Cc2cc3cccc([N+](=O)[O-])c3nc2-1`: the figures for the half-inhibitory concentration (IC50) (in test [1]; in the test on A549; in the test with KB) were 10700 nM, 13900 nM and 11300 nM, respectively.

Consider `CC[C@@]1(OC(=O)CCCN/C(Cc2ccc(OC)cc2)=N\S(=O)(=O)c2ccc(C)cc2)C(=O)OCc2c1cc1n(c2=O)Cc2cc3ccccc3nc2-1`, for which the IC50 in test [1] is 955 nM; with A549, 448 nM; in the test with KB it was 830 nM.

On to `CC[C@@]1(OC(=O)CN/C(Cc2ccc(OC)cc2)=N/S(=O)(=O)c2ccc(C)cc2)C(=O)OCc2c1cc1n(c2=O)C(OC)c2cc3ccccc3nc2-1` (stereo partly specified), for which the half-inhibitory concentration (IC50) in test [1] was found to be 6880 nM; in the test with A549, 7310 nM; in the test with KB, 7560 nM.

With `CCc1c2c(nc3ccccc13)-c1cc3c(c(=O)n1C2)COC(=O)[C@@]3(CC)OC(=O)C(C)N/C(Cc1ccc(OC)cc1)=N/S(C)(=O)=O` (stereo partly specified), the half-inhibitory concentration (IC50) in test [1] is 98.2 nM; in the test on A549, 61 nM; in the test with KB, 95.2 nM.

Turning to `CC[C@@]1(OC(=O)CN/C(Cc2ccc(OC)cc2)=N/S(C)(=O)=O)C(=O)OCc2c1cc1n(c2=O)Cc2cc3ccccc3nc2-1`, the IC50 is 63.5 nM in test [1], 54 nM in the test on A549 and 105 nM in the test on KB.

`CCc1c2c(nc3ccccc13)-c1cc3c(c(=O)n1C2)COC(=O)[C@@]3(CC)OC(=O)C(C)N/C(Cc1ccc(OC)cc1)=N/S(=O)(=O)c1ccc(C)cc1` (stereo partly specified): the concentration for half-maximal inhibition (IC50) in test [1] was found to be 22.7 nM; in the test on A549, 16 nM; in the test on KB, 84.2 nM.

Turning to `CC[C@@]1(OC(=O)C(C)N/C(Cc2ccc(OC)cc2)=N/S(=O)(=O)c2ccc(C)cc2)C(=O)OCc2c1cc1n(c2=S)Cc2cc3ccccc3nc2-1` (stereo partly specified), the IC50 in test [1] is 151 nM; with A549 it was 86.9 nM; in the test on KB it was 109 nM.

`CC[C@@]1(OC(=O)CN/C(Cc2ccc(OC)cc2)=N/S(=O)(=O)c2ccc(C)cc2)CC(=O)OCc2c1cc1n(c2=O)Cc2cc3ccccc3nc2-1`: the values for the IC50 (in test [1]; in the test on A549; in the test with KB) were 263 nM, 83.6 nM and 232 nM, respectively.

With `CCc1c2c(nc3ccccc13)-c1cc3c(c(=O)n1C2)COC(=O)[C@@]3(CC)OC(=O)CN/C(Cc1ccccc1)=N/S(=O)(=O)c1ccc(C)cc1`, the results for the 50% inhibitory concentration (IC50) (in test [1]; in the test on A549; with KB) were 18.5 nM, 7.2 nM and 89.5 nM, respectively.

Take `CC[C@@]1(OC(=O)CN/C(Cc2ccc(OC)cc2)=N/S(=O)(=O)c2cccs2)C(=O)OCc2c1cc1n(c2=O)Cc2cc3ccccc3nc2-1`: the 50% inhibitory concentration (IC50) in test [1] is 32.5 nM; in the test on A549 it was 37.5 nM; in the test with KB, 55 nM.

As to `CCc1c2c(nc3ccccc13)-c1cc3c(c(=O)n1C2)COC(=O)[C@@]3(CC)OC(=O)C(C)N/C(Cc1ccccc1)=N/S(=O)(=O)c1ccc(C)cc1` (stereo partly specified), the half-maximal inhibitory concentration (IC50) in test [1] stood at 19.5 nM; with A549, 10.2 nM; in the test with KB, 83.6 nM.

`CC[C@@]1(OC(=O)CN/C(Cc2ccc(OC)cc2)=N/S(=O)(=O)c2ccc([N+](=O)[O-])cc2)C(=O)OCc2c1cc1n(c2=O)Cc2cc3ccccc3nc2-1`: the IC50 (in test [1]; with A549; in the test with KB) was 14.9 nM each time.

Turning to `CC[C@@]1(OC(=O)CN/C(Cc2ccc(OC)cc2)=N/S(=O)(=O)c2ccc(F)cc2)C(=O)OCc2c1cc1n(c2=O)Cc2cc3ccccc3nc2-1`, the results for the 50% inhibitory concentration (IC50) (in test [1]; in the test with A549; in the test on KB) were 22.5 nM, 14.1 nM and 16.9 nM, respectively.

As to `CC[C@@]1(OC(=O)CN/C(Cc2ccc(OC)cc2)=N/S(=O)(=O)c2ccc(OC)cc2)C(=O)OCc2c1cc1n(c2=O)Cc2cc3ccccc3nc2-1`, the results for the IC50 (in test [1]; in the test with A549; in the test with KB) were 22.2 nM, 31.9 nM and 51.6 nM, respectively.

On to `CCc1c2c(nc3ccc(OC(=O)N4CCC(N5CCCCC5)CC4)cc13)-c1cc3c(c(=O)n1C2)COC(=O)[C@]3(O)CC` [IRINOTECAN], for which the half-inhibitory concentration (IC50) is more than 20000 nM in test [1], 9480 nM in the test with A549 and 9830 nM with KB.
